This passage reports EC50 results from PubChem BioAssay AID651769 (The Scripps Research Institute Molecular Screening Center, 2012).

Activity calls are given as the source filed them. No rule for the calls is given here.

For the experiment, the target named is Mu-type opioid receptor (Homo sapiens) (UniProt P35372). The experiment can be described thus: OPRM1 activation in cells, late-stage follow-up, counter-screen for OPRM1-OPRD1 heterodimer activator project, cell-based, luminescence, dose response, set 2 (AID 651769). To be noted: OPRM1 cell-based luminescence activation counterscreen. Background: The purpose of a counterscreen is to sort out artefacts and off-target activity.
Mu-type opioid receptor (Homo sapiens), sequence (P35372 whole entry, looked up): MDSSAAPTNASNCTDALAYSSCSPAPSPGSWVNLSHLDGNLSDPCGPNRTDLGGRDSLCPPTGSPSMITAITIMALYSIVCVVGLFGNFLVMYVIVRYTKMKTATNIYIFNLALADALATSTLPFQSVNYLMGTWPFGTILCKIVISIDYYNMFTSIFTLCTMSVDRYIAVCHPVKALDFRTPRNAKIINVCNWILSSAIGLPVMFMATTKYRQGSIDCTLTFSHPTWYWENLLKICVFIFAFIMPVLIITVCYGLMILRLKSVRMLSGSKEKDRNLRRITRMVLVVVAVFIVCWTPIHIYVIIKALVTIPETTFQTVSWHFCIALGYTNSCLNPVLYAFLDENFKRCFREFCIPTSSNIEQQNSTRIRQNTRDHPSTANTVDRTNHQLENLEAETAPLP
The term EC50 denotes the concentration at which the effect is half-maximal. Take `CCOC(=O)C1CCN(Cc2ccc(N(C)C)cc2)CC1`: the EC50 was > 50 µM (inactive).

Regarding `CCOC(=O)C1CCN(Cc2ccc(NC(C)=O)cc2)CC1`, the EC50 was > 50 µM (inactive).

For the compound `CCOC(=O)C1CCN(CCC(=O)Nc2ccc(C)cc2)CC1`, the EC50 is > 50 µM (inactive).

For `CCOC(=O)C1(CCOc2ccccc2)CCCN(Cc2ccc(NC(C)=O)cc2)C1` (stereo not drawn), the EC50 is > 50 µM (inactive).

For `CCOC(=O)C1(Cc2ccc(OC)cc2)CCN(C(=O)c2ccc(N(C)C)cc2)CC1`, the EC50 is > 50 µM (inactive).

Turning to `CCOC(=O)C1(Cc2cccc(OC)c2)CCCN(Cc2ccc(NC(C)=O)cc2)C1` (stereo not drawn), the EC50 was > 50 µM (inactive).

As to `CCOC(=O)C1(CC2CC2)CCN(Cc2ccc(NC(C)=O)cc2)CC1`, the EC50 was > 50 µM (inactive).

Regarding `CCOC(=O)C1(CCc2ccccc2)CCN(Cc2c(O)cccc2OC)CC1`, the EC50 was 3.44 µM.

Regarding `CCOC(=O)C1(CCOC)CCCN(Cc2ccc(NC(C)=O)cc2)C1` (stereo not drawn), the EC50 is > 50 µM (inactive).

As to `CCOC(=O)C1(CCc2ccccc2)CCN(Cc2ccncc2)CC1`, the EC50 was > 50 µM (inactive).

Consider `CCOC(=O)C1(CCc2ccccc2)CCN(Cc2ccc(OC)cc2)CC1`, for which the EC50 was 1.92 µM.

Turning to `CCOC(=O)C1(CC2CC2)CCN(C(=O)c2ccc(N3CCCCC3)cc2)CC1`, the EC50 is > 50 µM (inactive).

`C=Cc1ccc(C(=O)N2CCC(CCCc3ccccc3)(C(=O)OCC)CC2)cc1`: the EC50 is > 50 µM (inactive).

Consider `CCOC(=O)C1(Cc2ccccc2Cl)CCN(Cc2ccc(NC(C)=O)cc2)CC1`, for which the EC50 is > 50 µM (inactive).

In the case of `CCOC(=O)C1(CCOC)CCN(Cc2ccc(NC(C)=O)cc2)CC1`, the EC50 is > 50 µM (inactive).

Turning to `CCOC(=O)C1(Cc2ccccc2C)CCCN(Cc2ccc(NC(C)=O)cc2)C1` (stereo not drawn), the EC50 was > 50 µM (inactive).

Consider `CCOC(=O)C1(CCc2ccccc2)CCN(Cc2ccc(C#CC(C)(C)O)cc2)CC1`, for which the EC50 is > 50 µM (inactive).

Take `C=Cc1ccc(C(=O)N2CCC(CCc3ccccc3)(C(=O)OCC)CC2)cc1`: the EC50 is > 50 µM (inactive).

Consider `CCOC(=O)C1CCN(C(=O)c2ccc(N(C)C)cc2)CC1`, for which the EC50 is > 50 µM (inactive).

For the compound `CCOC(=O)C1(CCOC)CCN(Cc2ccc(N(C)c3ccccc3)cc2)CC1`, the EC50 is > 50 µM (inactive).

Consider `CCOC(=O)C1(Cc2ccccc2)CCCN(Cc2ccc(NC(C)=O)cc2)C1` (stereo not drawn), for which the EC50 was > 50 µM (inactive).

For `CC(=O)Nc1ccc(CN2CCCC(CO)(CCc3ccccc3)C2)cc1` (stereo not drawn), the EC50 is > 50 µM (inactive).

As to `CCOC(=O)C1(CCc2ccccc2)CCN(C(=O)Nc2ccc(C)cc2C)CC1`, the EC50 was > 50 µM (inactive).

Take `CCOC(=O)C1(CCc2ccccc2)CCCN(Cc2ccc(N3CCNC3=O)cc2)C1` (stereo not drawn): the EC50 is > 50 µM (inactive).

On to `CCOC(=O)C1(CCc2ccccc2)CCN(Cc2ccc(C(=O)OC)cc2)CC1`, for which the EC50 was > 50 µM (inactive).

On to `O=C(O)C1CCCCC1C(=O)Nc1ccc(CN2CCCCC2)cc1` (stereo not drawn), for which the EC50 was > 50 µM (inactive).

For `CCOC(=O)C1CCCCN1Cc1ccc(NC(C)=O)cc1` (stereo not drawn), the EC50 is > 50 µM (inactive).

Take `CCOC(=O)C1(CCc2ccccc2)CCN(Cc2ccc(O)cc2)CC1`: the EC50 was > 50 µM (inactive).
